Structures can show the parent of a compound that is named as a salt.
Tested on: rat foot pad
Assay: Inhibition of sweat in the rat foot pad (iodine/starch count of activated sweat glands, test foot vs control foot)
Assay type: in vivo, Sprague Dawley rats
Settings: for Approx. % Inhibition: topical on hind foot pads, photo 40 minutes post treatment
Procedure: To test the effectiveness of the adrenergic amines encompassed in this invention in inhibiting perspiration the following tests were carried out.
A series of test solutions were prepared by dissolving various quantities of xylometazoline HCl, oxymetazoline HCl and naphazoline HCl in freshly prepared distilled water. In the case of xylometazoline HCl 0.003%, 0.03%, 0.15% and 0.3% solutions were prepared. In the cases for oxymetazoline HCl and naphazoline HCl 0.15% solutions were made. The control material is distilled water.
• A. Prior to testing, rats are routinely acclimated to the laboratory environment for seven days and gross observations are made to ensure good health of animals to be tested. • B. Sprague Dawley rats, male and/or female (175-250 gm) are selected for test and identified by cage label and ear tag number. • C. A minimum of 6 animals is used in testing each solution.
• A. Test room should be maintained at a temperature of 78/± 2/F. • B. • 1. Test animals are injected intramuscularly with Innovar Vet\)\ (.01 ml/100 gm body wt.) by use of a 0.25 ml tuberculin syringe with a 26-27 gauge needle. Animals are then returned to their cages. • 2. […] Both hind feet are then swabbed with 70% ethyl alcohol (ETOH) to remove any debris. • 4. The four interdigital palmar foot pads on one hind foot are then treated with test material while the opposite hind foot is treated with the control material. • 5. After treatment of all animals, an iodine solution (2% in 95% ETOH wt./vol.) is applied to both hind feet. • 6. 30 minutes post treatment the hind feet are then painted with a suspension of starch and castor oil (50/50, wt./vol.). • 7. 40 minutes post treatment Polaroid photos (3X, using Polaroid Type Film 669) are taken of both hind feet in the same frame.
• 1. The number of activated sweat glands in each of the four palmar foot pads is quantitated by manually counting the black dots observed in the photo of the control and test treated feet. • 2. The ratio of the total number of secreting sweat glands on the control foot vs the total number of secreting glands on the test foot is used to estimate the percent inhibition of sweat in the rat foot pad. • 3. The following formula is used to calculate activity: Percent inhibition of sweat in the rat foot pad = [formula]

[1] = Concentration tested 0.15% in distilled water

Compound | Approx. % Inhibition [1] [%] | Approx. % Inhibition (Concentration tested 0.003% in distilled water) [%] | Approx. % Inhibition (Concentration tested 0.03% in distilled water) [%] | Approx. % Inhibition (Concentration tested 0.3% in distilled water) [%] | perspiration inhibition (result in words) (summary of Table I, concentrations 0.003-0.3%)
c1ccc2c(CC3=NCCN3)cccc2c1 [Naphazoline HCl, naphazoline HCl] | ~95 | – | – | – | –
Cc1cc(C(C)(C)C)c(O)c(C)c1CC1=NCCN1 [Oxymetazoline HCl, oxymetazoline HCl] | ~92 | – | – | – | –
Cc1cc(C(C)(C)C)cc(C)c1CC1=NCCN1 [Xylometazoline HCl, xylometazoline HCl] | ~80 | ~30 | ~50 | ~88 | a dose response has been demonstrated
